# Measurements from patent US11708344B2, “Flavone derivatives for the treatment and prophylaxis of hepatitis B virus disease” (Hoffmann-La Roche Inc., priority 2018, dated 2023).
# Read-outs that look alike come from different tables or passages of the source.
# How the values were obtained:
# [1] = system: HBsAg in HBV-infected PHH; test: Cryopreserved primary human hepatocytes (PHH) HBV infection assay, extracellular HBsAg (CLIA); format: cell-based; details: Hepatitis B virus, Hepatocyte, 216 h, read-out: HBsAg IC50, Cryopreserved PHH infected with HBV, 9 days post-compound treatment, extracellular HBsAg
# Experimental: This assay is used to confirm the anti-HBV effect of the compounds in HBV PHH infection assay. Cryopreserved PHH (BioreclamationIVT, Lot YJM) was thawed at 37° C. and gently transferred into pre-warmed InVitroGRO HT medium (BioreclamationIVT, Cat. S03317). The mixture was centrifuged at 70 relative centrifugal force (RCF) for 3 minutes at RT, and the supernatant was discarded. Pre-warmed InVitroGRO CP medium (BioreclamationIVT, Cat #S03316) was added to the cell pellet to gently re-suspend cells. The cells were seeded at the density of 5.8×10^4 cells per well to collagen I coated 96-well plate (Gibco, Cat. A1142803) with the InVitroGRO CP medium. All plates were incubated at 37° C. with 5% CO2 and 85% humidity.
# At 20 hours after plating, the medium was changed to PHH culture medium (Dulbecco's Modified Eagle Medium (DMEM)/F12 (1:1) (Gibco, Cat. 11320-033), 10% fetal bovine semm (Gibco Cat. 10099141), 100 U/mL penicillin, 100 μg/mL streptomycin (Gibco, Cat. 151401-122), […] (Invitrogen Cat. PHG0311L), 20 ng/mL dexamethasone (Sigma, Cat. D4902) and 250 ng/mL human recombinant insulin (Gibco, Cat. 12585-014)). And the cells were incubated at 37° C. with 5% CO2 and 85% humidity for 4 hours. The medium was then changed to pre-warmed PHH culture medium containing 4% polyethylene glycol (PEG) MW8000 (Sigma, Cat. P1458-50 ML) and 1% DMSO (Sigma, Cat. D2650). 5.8×10^6 genomic equivalents of HBV were added into the medium.
# At 24 hours post-infection, the cells were gently washed with PBS and refreshed with PHH culture medium supplemented with 1% DMSO, and 0.25 mg/mL Matrix gel (Corning, Cat. 356237) at 200 μL per well. All plates were immediately placed in at 37° C. CO2 incubator.
# 24 hours later, serial dilutions of compounds made with DMSO were further diluted with the same culture medium (PHH culture medium supplemented with 1% DMSO and 0.25 mg/mL Matrix gel as described above) before they were added to the cells to reach desired final compound concentrations and 1% DMSO concentration. The medium containing the compounds were refreshed every three days.
# At 9 days post-compound treatment, extracellular HBsAg level were measured with Chemiluminescence Immuno Assay (CLIA) kit (Autobio, HBsAg Quantitative CLIA). Extracellular HBV DNA was extracted by MagNA Pure 96 system (Roche) and then determined by quantitative PCR with the following primers and probe: […]
# HBsAg IC50 and HBV DNA IC50 values were derived from the dose-response curve using 4 parameter logistic curve fit method. The compounds of formula (I) have HBsAg IC50<20 μM, particularly <1 μM; and HBV DNA IC50<50 μM.
# [2] = Human microsome stability assay; format: in vitro ADME; details: human liver microsomes, 1 μM test compound, 0.5 mg/mL microsomal protein, 37° C., pH 7.4, 0-30 minutes
# Method in brief: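 Parent compound remaining was measured by LC-MS/MS at 0, 3, 6, 9, 15 and 30 min, following ACN quench. Reactions held 1 μM compound and 0.5 mg/mL human liver microsomal protein in pH 7.4 phosphate buffer at 37 °C, started by NADPH regeneration (1 mM NADP, 1 mM MgCl2); controls lacked NADPH.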
# [3] = system: HBeAg (surrogate marker for cccDNA) in HepDES19 cells; test: Engineered HepDES19 primary screen assay (HBeAg ELISA); format: cell-based, HBV
# Method in brief: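 IC50 values come from 4-parameter logistic fits of HBeAg ELISA signal, the cccDNA surrogate, with CCK-8 run in parallel for viability. Compounds at half-log dilutions with 1% DMSO were applied for 5 days at 37 °C to HepDES19 cells previously cultured 8 days without Tet.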
# [4] = Hepatitis B virus, HepDES19, 120 h, read-out: IC50 (HBeAg level, HepDES19 primary screen assay), HepDES19 cells, 5 days compound incubation, HBeAg ELISA
Compound,IC50 [1] [nM],Clearance of Human microsome [2] [mL/min/kg],"IC50 [3, 4] [nM]","IC50 ([3]; read-out: IC50 (HBeAg level, HepDES19 primary screen assay), HepDES19 cells, 5 days compound incubation, HBeAg ELISA) [nM]"
"O=C(O)CCOc1cc(C(F)(F)F)ccc1-c1cc(=O)c2cccc(Cl)c2o1 [Example A001, 3-[2-(8-chloro-4-oxo-chromen-2-yl)-5-(trifluoromethyl)phenoxy]propanoic acid]",1190,10.0,1640,–
"O=C(O)CCOc1cc(Br)ccc1-c1cc(=O)c2cccc(Cl)c2o1 [Example A004, 3-[5-bromo-2-(8-chloro-4-oxo-chromen-2-yl)phenoxy]propanoic acid]",6610,6.15,374,–
"Cc1cc(-c2cc(=O)c3cccc(Cl)c3o2)c(OCCC(=O)O)cc1Cl [Example A005, 3-[5-chloro-2-(8-chloro-4-oxo-chromen-2-yl)-4-methyl-phenoxy]propanoic acid]",553,6.66,1370,–
"COc1cc(-c2cc(=O)c3cccc(Cl)c3o2)c(OCCC(=O)O)cc1Br [Example A007, 3-[5-bromo-2-(8-chloro-4-oxo-chromen-2-yl)-4-methoxy-phenoxy]propanoic acid]",2730,6.15,3150,–
"COc1cc(-c2cc(=O)c3cccc(Cl)c3o2)c(OCCC(=O)O)cc1Cl [Example A008, 3-[5-chloro-2-(8-chloro-4-oxo-chromen-2-yl)-4-methoxy-phenoxy]propanoic acid]",948,6.15,2260,–
"O=C(O)CCOc1cc(OC(F)(F)F)ccc1-c1cc(=O)c2cccc(Cl)c2o1 [Example A009, 3-[2-(8-chloro-4-oxo-chromen-2-yl)-5-(trifluoromethoxy)phenoxy]propanoic acid]",1480,6.57,403,–
"COc1cc(OCCC(=O)O)c(-c2cc(=O)c3cccc(Cl)c3o2)cc1OC [Example A010, 3-[2-(8-chloro-4-oxo-chromen-2-yl)-4,5-dimethoxy-phenoxy]propanoic acid]",3000,6.15,1400,–
"Cc1cc(-c2cc(=O)c3cccc(Cl)c3o2)c(O[C@H]2C[C@H](C(=O)O)C2)cc1Br [Example B013-B, Trans-3-[5-bromo-2-(8-chloro-4-oxo-chromen-2-yl)-4-methyl-phenoxy]cyclobutanecarboxylic acid]",1020,–,2450,–
"COc1cc(O[C@H]2C[C@H](C(=O)O)C2)c(-c2cc(=O)c3cccc(Cl)c3o2)cc1C [Example B017, 3-[2-(8-chloro-4-oxo-chromen-2-yl)-5-methoxy-4-methyl-phenoxy]cyclobutanecarboxylic acid]",4870,–,4850,–
"Cc1ccc(-c2cc(=O)c3cccc(Cl)c3o2)c(O[C@H]2C[C@H](C(=O)O)C2)c1 [Example B018-B, Trans-3-[2-(8-chloro-4-oxo-chromen-2-yl)-5-methyl-phenoxy]cyclobutanecarboxylic acid]",4700,–,548,–
"CCc1ccc(-c2cc(=O)c3cccc(Cl)c3o2)c(O[C@H]2C[C@@H](C(=O)O)C2)c1 [Example B019-A, Cis-3-[2-(8-chloro-4-oxo-chromen-2-yl)-5-ethyl-phenoxy]cyclobutanecarboxylic acid]",3960,–,1030,–
"O=c1cc(-c2ccc(Br)cc2OC[C@H]2C[C@H](C(=O)O)C2)oc2c(Cl)cccc12 [Example B025-B, Trans-3-[[5-bromo-2-(8-chloro-4-oxo-chromen-2-yl)phenoxy]methyl]cyclobutanecarboxylic acid]",3060,–,–,2270
"COc1cc(O[C@H]2C[C@H](C(=O)NS(C)(=O)=O)C2)c(-c2cc(=O)c3cccc(Cl)c3o2)cc1Br [Example B055-B, Trans-3-[4-bromo-2-(8-chloro-4-oxo-chromen-2-yl)-5-methoxy-phenoxy]-N-methylsulfonyl-cyclobutanecarboxamide]",4000,–,3880,–
"N#CC1CC(Oc2cc(C(F)(F)F)ccc2-c2cc(=O)c3cccc(Cl)c3o2)C1 (centres unmarked) [Example B070, 3-[2-(8-chloro-4-oxo-chromen-2-yl)-5-(trifluoromethyl)phenoxy]cyclobutanecarbonitrile]",788,–,435,–
"CN(C)S(=O)(=O)CCCOc1cc(Br)ccc1-c1cc(=O)c2cccc(Cl)c2o1 [Example B071, 3-[5-bromo-2-(8-chloro-4-oxo-chromen-2-yl)phenoxy]-N,N-dimethyl-propane-1-sulfonamide]",4950,–,988,–
"O=C(O)COCCCOc1cc(Br)ccc1-c1cc(=O)c2cccc(Cl)c2o1 [Example C010, 2-[3-[5-bromo-2-(8-chloro-4-oxo-chromen-2-yl)phenoxy]propoxy]acetic acid]",9380,–,696,–
"Cc1cc(-c2cc(=O)c3cccc(Cl)c3o2)c(OCCO[C@H]2C[C@@H](C(=O)O)C2)cc1Br [Example C031-A, Cis-3-[2-[5-bromo-2-(8-chloro-4-oxo-chromen-2-yl)-4-methyl-phenoxy]ethoxy]cyclobutanecarboxylic acid]",1160,–,6190,–
"COc1cc(OCCO[C@H]2C[C@@H](C(=O)O)C2)c(-c2cc(=O)c3cccc(Cl)c3o2)cc1C [Example C041-A, Cis-3-[2-[2-(8-chloro-4-oxo-chromen-2-yl)-5-methoxy-4-methyl-phenoxy]ethoxy]cyclobutanecarboxylic acid]",5930,–,7840,–
"O=c1cc(-c2ccc(Br)cc2OCCO[C@H]2C[C@@H](C(=O)O)C2)oc2c(Cl)ccc(C(F)(F)F)c12 [Example C049-A, Cis-3-[2-[5-bromo-2-[8-chloro-4-oxo-5-(trifluoromethyl)chromen-2-yl]phenoxy]ethoxy]cyclobutanecarboxylic acid]",7310,–,77.5,–
"Cc1cc(-c2cc(=O)c3cccc(Cl)c3o2)c(OCCO[C@H]2C[C@@H](C(=O)O)C2)cc1Cl [Example C055-A, Cis-3-[2-[5-chloro-2-(8-chloro-4-oxo-chromen-2-yl)-4-methyl-phenoxy]ethoxy]cyclobutanecarboxylic acid]",9270,–,4030,–
"O=C(O)C1CC(OCCOc2cc(N3CCOC3=O)ccc2-c2cc(=O)c3cccc(Cl)c3o2)C1 (centres unmarked) [Example C062, 3-[2-[2-(8-chloro-4-oxo-chromen-2-yl)-5-(2-oxooxazolidin-3-yl)phenoxy]ethoxy]cyclobutanecarboxylic acid]",6790,–,1510,–
"O=c1cc(-c2ccc(N3CCOCC3)cc2OCCO[C@H]2C[C@H](C(=O)O)C2)oc2c(Cl)cccc12 [Example C067-B, trans-3-[2-[2-(8-chloro-4-oxo-chromen-2-yl)-5-morpholino-phenoxy]ethoxy]cyclobutanecarboxylic acid]",4740,–,8360,–
"NC(=O)COCC(O)COc1cc(Br)ccc1-c1cc(=O)c2cccc(Cl)c2o1 (centres unmarked) [Example C114, 2-[3-[5-bromo-2-(8-chloro-4-oxo-chromen-2-yl)phenoxy]-2-hydroxy-propoxy]acetamide]",9190,–,1240,–
